In patent publication US11053219B2, “Substituted pyridines as TYK2 inhibitors” (FronThera U.S. Pharmaceuticals LLC, priority 2018, dated 2021) one finds Kd and IC50 data, which are given here for 45 molecules.

For one assay, the target named is TYK2 (JH2 domain) (Homo sapiens (Human), UniProt P29597). Put plainly: TYK2 JH2 domain binding assay (DiscoverX KINOMEscan). Conditions: 11-point 3-fold dilution, duplicate.
Assay [1] relates to IL12-induced p-STAT4 in human PBMC. As to the kind of experiment: IL-12 induced pSTAT4 in human PBMC. In kind it is cell-based. Conditions: read-out: p-STAT4 IC50.
Procedure: Cells were seeded in a round bottom 96-well plate at the concentration of 200,000 cells/well. A 10-point dilution series of test compound (top dose 10 uM, 1:5 dilution) was added to the well using the liquid dispenser (Tecan D300e) and incubated for 1 hour at 37 C. Then human IL-12 recombinant protein (R&D Systems) was added to the well at the final concentration of 10 ng/ml and incubated for 15 minutes at 37 C. Cell lysates were prepared and analyzed by Phospho STAT4 (Tyr693) Kit (Meso Scale Discovery) following manufacturer's protocol.
For calculation of the inhibition rate, the relative pSTAT4 signal of each well=pSTAT4 signal of each well−the average pSTAT4 signal of baseline. The inhibition %=(the average pSTAT4 signal of IL-12 treatment wells−the relative of pSTAT4 signal in each compound containing well)/the average pSTAT4 signal of IL-12 treatment wells*100%
(§1) The curve was plotted as the inhibition % (y-axis) vs. compounds concentration (x-axis) and was fitted with log(inhibitor) vs. normalized response—Variable slope by GraphPad Prism7.0.
The subject of assay [2] is INFα induced pSTAT5 in human PBMC. As to the kind of experiment: INFα induced pSTAT5 in human PBMC. In kind it is cell-based. Conditions: human PBMC, INFα 5000 units/ml; read-out: p-STAT5 IC50.
Procedure: Cells were seeded in a round bottom 96-well plate at the concentration of 200,000 cells/well. A 10-point dilution series of test compound (top dose 10 uM, 1:5 dilution) was added to the well using the liquid dispenser (Tecan D300e) and incubated for 1 hour at 37 C. Then human INFα recombinant protein (R&D Systems) was added to the well at the final concentration of 5000 units/ml and incubated for 15 minutes at 37 C. Cell lysates were prepared and analyzed by Phospho STAT3 (Tyr705) cellular kit (Cisbio) or Phospho STAT5 (Tyr693) Kit (Meso Scale Discovery) following manufacturer's protocol.
For calculation of the inhibition rate, the relative pSTAT signal of each well=pSTAT signal of each well−the average pSTAT signal of baseline. The inhibition %=(the average pSTAT signal of INFα treatment wells−the relative of pSTAT signal in each compound containing well)/the average pSTAT signal of INFα treatment wells*100%
as §1

pIC50, pKd: −log10 of the molar value. Read-outs that look alike come from different tables or passages of the source.

Chain of TYK2 (JH2 domain) (P29597 589-875): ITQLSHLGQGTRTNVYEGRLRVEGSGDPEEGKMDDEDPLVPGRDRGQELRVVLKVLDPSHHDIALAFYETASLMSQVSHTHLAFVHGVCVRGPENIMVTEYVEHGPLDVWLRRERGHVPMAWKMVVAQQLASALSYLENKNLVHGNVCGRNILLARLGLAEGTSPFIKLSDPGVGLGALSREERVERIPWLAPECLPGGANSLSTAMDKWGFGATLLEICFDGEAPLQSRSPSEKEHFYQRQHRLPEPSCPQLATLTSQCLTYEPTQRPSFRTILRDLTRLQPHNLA

Consider `[2H]C([2H])([2H])NC(=O)c1nnc(N2CCN(CC(C)C)C2=O)cc1Nc1cccc(-c2ncn(C)n2)c1OC` [Example 17, 6-(3-isobutyl-2-oxo-imidazolidin-1-yl)-4-[2-methoxy-3-(1-methyl-1,2,4-triazol-3-yl)anilino]-N-(trideuteriomethyl)pyridazine-3-carboxamide], for which the pKd at TYK2 (JH2 domain) was no less than 9.00. In addition, the pIC50 in assay [1] (human PBMC, IL-12 10 ng/ml) was greater than 7.00.
On TYK2 (JH2 domain), `[2H]C([2H])([2H])NC(=O)c1nnc(N2CCN(C3CCCC3)C2=O)cc1Nc1cccc(-c2ncn(C)n2)c1OC` [Example 18, 6-(3-cyclopentyl-2-oxo-imidazolidin-1-yl)-4-[2-methoxy-3-(1-methyl-1,2,4-triazol-3-yl)anilino]-N-(trideuteriomethyl)pyridazine-3-carboxamide] showed a pKd of no less than 9.00. Also, in assay [1] (human PBMC, IL-12 10 ng/ml), the pIC50 is greater than 7.00.
The molecule `[2H]C([2H])([2H])NC(=O)c1nnc(N2CCN(C34CC(C3)C4)C2=O)cc1Nc1cccc(-c2ncn(C)n2)c1OC` [Example 19, 6-[3-(3-bicyclo[1.1.1]pentanyl)-2-oxo-imidazolidin-1-yl]-4-[2-methoxy-3-(1-methyl-1,2,4-triazol-3-yl)anilino]-N-(trideuteriomethyl)pyridazine-3-carboxamide] showed a pKd at TYK2 (JH2 domain) of no less than 9.00. Also, the negative logarithm of the IC50 (pIC50) in assay [1] (human PBMC, IL-12 10 ng/ml) was greater than 7.00.
Molecule `[2H]C([2H])([2H])NC(=O)c1nnc(N2CCN(C3CCC3)C2=O)cc1Nc1cccc(-c2ncn(C)n2)c1OC([2H])([2H])[2H]` [Example 20, 6-(3-cyclobutyl-2-oxo-imidazolidin-1-yl)-4-[3-(1-methyl-1,2,4-triazol-3-yl)-2-(trideuteriomethoxy)anilino]-N-(trideuteriomethyl)pyridazine-3-carboxamide] gave a pKd on TYK2 (JH2 domain) of no less than 9.00. Also, the pIC50 in assay [1] (human PBMC, IL-12 10 ng/ml) is greater than 7.00.
`[2H]C([2H])([2H])NC(=O)c1nnc(N2CCN(C(C([2H])([2H])[2H])C([2H])([2H])[2H])C2=O)cc1Nc1cccc(-c2ncn(C([2H])([2H])[2H])n2)c1OC` [Example 21, 6-(3-isopropyl-2-oxo-imidazolidin-1-yl)-4-[2-methoxy-3-(1-methyl-1,2,4-triazol-3-yl)anilino]-N-(trideuteriomethyl)pyridazine-3-carboxamide] gave a negative-log Kd (pKd) at TYK2 (JH2 domain) of no less than 9.00. Moreover, in assay [1] (human PBMC, IL-12 10 ng/ml), the pIC50 is greater than 7.00.
For the molecule `[2H]C([2H])([2H])NC(=O)c1nnc(N2CCN(C3CCC3)C2=O)cc1Nc1cccc(-c2ncn(C([2H])([2H])[2H])n2)c1OC` [Example 22, 6-(3-cyclobutyl-2-oxo-imidazolidin-1-yl)-4-[2-methoxy-3-[1-(trideuteriomethyl)-1,2,4-triazol-3-yl]anilino]-N-(trideuteriomethyl)pyridazine-3-carboxamide], the pKd at TYK2 (JH2 domain) was no less than 9.00. Also, in assay [1] (human PBMC, IL-12 10 ng/ml), the pIC50 was greater than 7.00.
`[2H]C([2H])([2H])NC(=O)c1nnc(NC(=O)N2CCC2)cc1Nc1cccc(-c2ncn(C)n2)c1OC` [Example 28]: the negative-log Kd (pKd) at TYK2 (JH2 domain) is no less than 9.00. The negative logarithm of the IC50 (pIC50) in assay [2] is greater than 7.00.
`[2H]C([2H])([2H])NC(=O)c1nnc(NC(=O)N2CCCC2)cc1Nc1cccc(-c2ncn(C)n2)c1OC` [Example 29] had a pKd on TYK2 (JH2 domain) of no less than 9.00. Besides, in assay [1] (Homo sapiens, PBMC), the pIC50 was greater than 7.00.
Consider `CNC(=O)c1nnc(NC(=O)N2CCC2)cc1Nc1cccc(-c2ncn(C)n2)c1OC` [Example 30], for which the pKd at TYK2 (JH2 domain) is no less than 9.00. Also, the pIC50 in assay [1] (human PBMC, IL-12 10 ng/ml) was greater than 7.00.
Regarding `[2H]C1([2H])CN(C(=O)Nc2cc(Nc3cccc(-c4ncn(C)n4)c3OC)c(C(=O)NC([2H])([2H])[2H])nn2)C1` [Example 31], the pIC50 in assay [1] (human PBMC, IL-12 10 ng/ml) was greater than 7.00.
Molecule `[2H]C([2H])([2H])NC(=O)c1nnc(NC(=O)N2CC3(CCC3)C2)cc1Nc1cccc(-c2ncn(C)n2)c1OC` [Example 32] gave a negative logarithm of the Kd (pKd) on TYK2 (JH2 domain) of no less than 9.00. Also, the pIC50 in assay [1] (Homo sapiens, PBMC) is greater than 7.00.
In the same order, the values of `COc1c(Nc2cc(NC(=O)N3CCC3)ncc2C(=O)C2CC2)cccc1-c1ncn(C)n1` [Example 33] are no less than 9.00 and greater than 7.00.
Take `[2H]C([2H])([2H])Oc1c(Nc2cc(NC(=O)C3CC3)ncc2C(=O)C2CC2)cccc1-c1ncn(C)n1` [Example 34]: the pIC50 in assay [1] (Homo sapiens, PBMC) is greater than 7.00.
For `COc1c(Nc2cc(NC(=O)C(C)C)ncc2C(=O)C2CC2)cccc1-c1ncn(C)n1` [Example 36], at TYK2 (JH2 domain), the pKd was no less than 9.00. The pIC50 in assay [1] (human PBMC, IL-12 10 ng/ml) is greater than 7.00.
Turning to `[2H]C([2H])([2H])NC(=O)c1nnc(NC(=O)N2CC(F)(F)C2)cc1Nc1cccc(-c2ncn(C)n2)c1OC` [Example 47], the pKd at TYK2 (JH2 domain) is no less than 9.00. The negative logarithm of the IC50 (pIC50) in assay [1] (human PBMC, IL-12 10 ng/ml) is greater than 7.00.
`[2H]C([2H])([2H])NC(=O)c1cnc(N2CCN(C(C)C)C2=O)cc1Nc1cccc(-c2ncn(C)n2)c1OC` [Example 48] showed a pKd at TYK2 (JH2 domain) of no less than 9.00. In addition, in assay [1] (human PBMC, IL-12 10 ng/ml), the pIC50 was greater than 7.00.
On to `[2H]C([2H])([2H])NC(=O)c1nnc(NC(=O)N2CCC2)cc1Nc1cccc(-c2ncn(C)n2)c1OC` [Example 50], for which the pKd at TYK2 (JH2 domain) was no less than 9.00. In addition, the pIC50 in assay [1] (human PBMC, IL-12 10 ng/ml) is greater than 7.00.
Turning to `COc1c(Nc2cc(Nc3ccncn3)ncc2C(=O)C2CC2)cccc1-c1ncn(C)n1` [Example 52], the pKd at TYK2 (JH2 domain) was no less than 9.00. In assay [1] (human PBMC, IL-12 10 ng/ml), the pIC50 was greater than 7.00.
The matching figures for `[2H]C([2H])([2H])NC(=O)c1nnc(N2CCN(C3C[C@@H]3F)C2=O)cc1Nc1cccc(-c2ncn(C)n2)c1OC` (stereo partly drawn) [Example 78]: no less than 9.00 and greater than 7.00.
In turn, `[2H]C([2H])([2H])NC(=O)c1nnc(N2CCN(C(C)CO)C2=O)cc1Nc1cccc(-c2ncn(C)n2)c1OC` (stereo not drawn) [Example 85] showed a negative-log Kd (pKd) at TYK2 (JH2 domain) of no less than 9.00. For the same molecule, the pIC50 in assay [1] (human PBMC, IL-12 10 ng/ml) is 6.00 to 7.00.
As to `COc1c(Nc2cc(Nc3cc(F)ccn3)ncc2C(=O)C2CC2)cccc1-c1ncn(C)n1` [Example 108], the pKd at TYK2 (JH2 domain) was no less than 9.00. Moreover, the pIC50 in assay [2] is greater than 7.00.
For the molecule `CC(C)(O)c1ccc(Nc2cc(Nc3ncccc3S(C)(=O)=O)c(C(=O)C3CC3)cn2)nc1` [Example 126], the pKd on TYK2 (JH2 domain) is no less than 9.00. Further, in assay [2], the pIC50 is greater than 7.00.
The matching figures for `COc1c(Nc2cc(Nc3cc(C)c(F)cn3)ncc2C(=O)C2CC2)cccc1-c1ncn(C)n1` [Example 145]: no less than 9.00 and greater than 7.00.
Take `[2H]C([2H])([2H])NC(=O)c1nnc(N2CCN(C(C)C)C2=O)cc1Nc1nccc(-c2ncn(C([2H])([2H])[2H])n2)c1OC` [Example 160, 6-(3-isopropyl-2-oxo-imidazolidin-1-yl)-4-[[3-methoxy-4-[1-(trideuteriomethyl)-1,2,4-triazol-3-yl]-2-pyridyl]amino]-N-(trideuteriomethyl)pyridazine-3-carboxamide]: the pIC50 in assay [2] was greater than 7.00.
Same read-out and setting: under `COc1c(Nc2cc(NC(=O)[C@@H]3C[C@@H]3F)ncc2C(=O)C2CC2)cccc1-c1ncn(C)n1` [Example 161] stands greater than 7.00; under `[2H]C([2H])([2H])NC(=O)c1nnc(NC(=O)N2CCC2C)cc1Nc1cccc(-c2ncn(C)n2)c1OC` (stereo not drawn) [Example 164, 4-((2-methoxy-3-(1-methyl-1H-1,2,4-triazol-3-yl)phenyl)amino)-N-(methyl-d3)-6-(2-methylazetidine-1-carboxamido)pyridazine-3-carboxamide], greater than 7.00; under `[2H]C([2H])([2H])NC(=O)c1nnc(NC(=O)N2CC(C)(O)C2)cc1Nc1cccc(-c2ncn(C)n2)c1OC` [Example 165], 6.00 to 7.00.
As for `[2H]C([2H])([2H])NC(=O)c1nnc(NC(=O)N2CC(CO)C2)cc1Nc1cccc(-c2ncn(C)n2)c1OC` [Example 169], the pIC50 in assay [2] was greater than 7.00.
On to `[2H]C([2H])([2H])CC(=O)c1cnc(NC(=O)C2CC2)cc1Nc1cccc(-c2ncn(C)n2)c1OC` [Example 171], for which the pIC50 in assay [2] is greater than 7.00.
For `[2H]C([2H])([2H])CC(=O)c1cnc(Nc2ccc(C(C)(C)O)cn2)cc1Nc1ncccc1S(C)(=O)=O` [Example 172], the pIC50 in assay [2] is greater than 7.00.
In the case of `COc1c(Nc2cc(Nc3ncc[nH]3)ncc2C(=O)C2CC2)cccc1-c1ncn(C)n1` [Example 173], in assay [2], the pIC50 was 6.00 to 7.00.
Regarding `CCC(=O)c1cnc(Nc2ccc(C(C)(C)O)c(F)n2)cc1Nc1ncccc1S(C)(=O)=O` [Example 174], the negative-log IC50 (pIC50) in assay [2] is greater than 7.00.
`CCC(=O)c1cnc(Nc2cccc(C#N)n2)cc1Nc1nccc(-c2ncn(C)n2)c1OC` [Example 175]: the pIC50 in assay [2] is greater than 7.00.
As to `CCC(=O)c1cnc(Nc2cccc(C#N)n2)cc1Nc1ncccc1S(C)(=O)=O` [Example 176], the pIC50 in assay [2] is greater than 7.00.
For `CCC(=O)c1cnc(Nc2cccc(C#N)n2)cc1Nc1cccc(-c2ncn(C)n2)c1OC` [Example 177], the pIC50 in assay [2] is greater than 7.00.
Regarding `CCC(=O)c1cnc(Nc2cc(C)n(C)n2)cc1Nc1cccc(-c2ncn(C)n2)c1OC` [Example 178], the pIC50 in assay [2] is greater than 7.00.
The same measure, in the same setting: then `CCC(=O)c1cnc(Nc2cc(C)n(C)n2)cc1Nc1ncccc1S(C)(=O)=O` [Example 179], with greater than 7.00; and `CCC(=O)c1cnc(Nc2cc(C)n(C)n2)cc1Nc1nccc(-c2ncn(C)n2)c1OC` [Example 180], with greater than 7.00.
Same read-out and setting: then `[2H]C([2H])([2H])CC(=O)c1cnc(Nc2ccc(C(C)(C)O)c(F)n2)cc1Nc1ncccc1S(C)(=O)=O` [Example 184], with greater than 7.00; and `[2H]C([2H])([2H])CC(=O)c1cnc(Nc2ccc(C(C)(C)O)c(F)n2)cc1Nc1nccc(-c2ncn(C)n2)c1OC` [Example 185], with greater than 7.00; and `[2H]C([2H])([2H])n1cnc(-c2cccc(Nc3cc(NC(=O)C4CC4)ncc3C(=O)CC)c2OC)n1` [Example 189], with greater than 7.00.
In the case of `[2H]C([2H])([2H])CC(=O)c1cnc(Nc2ccc(C)nn2)cc1Nc1ncccc1S(C)(=O)=O` [Example 190], the pIC50 in assay [2] was greater than 7.00.
Regarding `[2H]C([2H])([2H])CC(=O)c1cnc(Nc2cc(C)nc(C)n2)cc1Nc1ncccc1S(C)(=O)=O` [Example 191], the pIC50 in assay [2] was greater than 7.00.
`[2H]C([2H])([2H])CC(=O)c1cnc(NC(=O)C2CC2)cc1Nc1nccc(-c2ncn(C)n2)c1OC` [Example 193]: the pIC50 in assay [2] is greater than 7.00.
Turning to `COc1c(Nc2cc(Nc3nc(C)c[nH]3)ncc2C(=O)C2CC2)cccc1-c1ncn(C)n1` [Example 196], in assay [2], the negative-log IC50 (pIC50) was 6.00 to 7.00.
